Assay results from patent US8957062B2, “Substituted cyclopropyl compounds, compositions containing such compounds and methods of treatment” (Merck Sharp & Dohme Corp., priority 2011, dated 2015).
pEC50: −log10 of the molar value.

Each molecule was assayed against T1, human GPR119 (Homo sapiens, UniProt Q8TDV5) (assay: Measurement of GPR119 signaling (cAMP assay) in cells stably transfected with human GPR119). Conditions: cAMP stimulation; read-out: GPR119 HumC EC50.
T1 sequence (Q8TDV5 1-308 limits assumed): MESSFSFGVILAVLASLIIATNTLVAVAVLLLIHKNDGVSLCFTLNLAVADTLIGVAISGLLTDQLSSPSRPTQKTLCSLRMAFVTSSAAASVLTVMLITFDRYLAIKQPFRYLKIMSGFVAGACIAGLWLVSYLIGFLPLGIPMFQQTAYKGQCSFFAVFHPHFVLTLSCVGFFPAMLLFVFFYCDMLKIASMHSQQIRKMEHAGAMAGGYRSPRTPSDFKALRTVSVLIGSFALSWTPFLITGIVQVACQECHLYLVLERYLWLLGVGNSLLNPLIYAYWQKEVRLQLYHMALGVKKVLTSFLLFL
Assay type: cell-based
Method: Measurement of GPR119 Signaling (Cyclic AMP (cAMP) Assay)
The adenylate cyclase assay was constructed following the LANCE™ cAMP Kit (Perkin Elmer, AD0264) instructions.
The reaction was stopped by incubating with the supplied detection buffer containing the europium chelate of the Eu-SA/Biotin-cAMP tracer for 3 hours. The assay was performed in duplicate in a 384 well plate for duplicate plates and fluorescence was measured at 665 nm. Basal activity was determined using a DMSO control and maximum response was defined as cAMP stimulation produced by an internal agonist control. Standard cAMP concentrations were assayed concurrently for conversion of fluorescence signal to cAMP level. The data was analyzed using 4-parameter curve fit in Microsoft Excel.
Measurement of GPR119 Signaling (cAMP Homogenous Time Resolved Fluorescence (HTRF) Assay)
Chinese hamster ovary (CHO) cell lines stably transfected with the permissive guanine nucleotide binding protein alpha 15 (Gα15) and murine GPR119 were maintained in DMEM media containing FBS, penicillin-streptomycin, puromycin, and G418 (geneticin). […] Agonist activation of the GPR119 receptor was measured in receptor transfected cells described above, treated with compounds of this invention, using a commercial homogenous time resolved fluorescence (HTRF) kit for measurement of cAMP (CisBio, Bedford, Mass.). The assay was performed in 96-well half-volume plates (murine) or 384-well plates (human) following the manufacturers instructions. Briefly, suspended cells were incubated with a dose titration of test compound at RT for 60 min, lysed, and incubated with HTRF reagents for an additional 60 min. The plate was read using an Envision multilabel reader (Perkin Elmer) adjusted to read time resolved fluorescence and the cAMP concentrations were extrapolated from a cAMP calibration curve. […] The concentration of test compound required to stimulate a half-maximal response (EC50), and efficacy as compared to an internal agonist control, was determined from a sigmoidal 4-parameter curve fit of the resulting plot of normalized activity versus compound concentration.

pEC50	Structure (SMILES)
9.06	CC1(OC(=O)N2CCC([C@H]3C[C@H]3CCOc3ccc(CC(=O)N4CC(F)C4)c(F)c3)CC2)CC1 [Example 63]
8.02	CC1(O)CN(C(=O)Cc2ccc(OCC[C@@H]3C[C@@H]3C3CCN(C(=O)OC4(C)CC4)CC3)cc2F)C1 [Example 64]
9.31	CC1(OC(=O)N2CCC([C@H]3C[C@H]3CCOc3ccc(CC(=O)N4CC(F)(F)C4)c(F)c3)CC2)CC1 [Example 65]
8.62	CN(C)C(=O)Cc1ccc(OCC[C@@H]2C[C@@H]2C2CCN(C(=O)OC3(C)CC3)CC2)cc1F [Example 66]
8.07	CC1(OC(=O)N2CCC([C@H]3C[C@H]3CCOc3ccc(CC(=O)N4CCOCC4)c(F)c3)CC2)CC1 [Example 67]
8.29	CC1(OC(=O)N2CCC([C@H]3C[C@H]3CCOc3ccc(CC(=O)N4CCC[C@@H]4C(F)(F)F)c(F)c3)CC2)CC1 [Example 68]
8.82	CC1(OC(=O)N2CCC([C@H]3C[C@H]3CCOc3ccc(CC(=O)N4CCC4)c(Cl)c3)CC2)CC1 [Example 69]
8.57	CC1(OC(=O)N2CCC([C@H]3C[C@H]3CCOc3ccc(CC(=O)N4CCC4)c(C#N)c3)CC2)CC1 [Example 70]
8.85	O=C(Cc1ccc(OCC[C@@H]2C[C@@H]2C2CCN(C(=O)OC3CCC3)CC2)cc1F)N1CCC1 [Example 71]
8.44	CC1(COC(=O)N2CCC([C@H]3C[C@H]3CCOc3ccc(CC(=O)N4CCC4)c(F)c3)CC2)CC1 [Example 72]
8.66	O=C(Cc1ccc(OCC[C@@H]2C[C@@H]2C2CCN(C(=O)OCC3CCC3)CC2)cc1F)N1CCC1 [Example 73]
8.57	CCC1(OC(=O)N2CCC([C@H]3C[C@H]3CCOc3ccc(CC(=O)N4CCC4)c(F)c3)CC2)CC1 [Example 74]
9.22	CC(C)c1noc(N2CCC([C@H]3C[C@H]3CCOc3cc(F)c(CC(=O)N(C)C)cc3F)CC2)n1 [Example 75]

Same assay, conditions: stated in the example text without 'GPR119'; read-out: Human EC50

pEC50	Structure (SMILES)
8.66	CN(C)C(=O)Cc1cc(F)c(OCC[C@@H]2C[C@@H]2C2CCN(C(=O)OC3(C)CC3)CC2)cc1F [Example 62, 1-methylcyclopropyl 4-[(1R,2S)-2-(2-{4-[2-(dimethylamino)-2-oxoethyl]-2,5-difluorophenoxy}ethyl)cyclopropyl]piperidine-1-carboxylate]

Same assay, conditions: stated in the example text; cAMP stimulation, human GPR119; read-out: GPR119 Human EC50

pEC50	Structure (SMILES)
9.10	CC(C)OC(=O)N1CCC([C@H]2C[C@H]2CCOc2cc(F)c(C(=O)C3CC3)c(F)c2)CC1 [Example 51]
8.33	CC1(OC(=O)N2CCC([C@H]3C[C@H]3CCOc3ccc(CC(=O)N4CCCC4)cc3)CC2)CC1 [Example 56]
8.23	CC1(OC(=O)N2CCC([C@H]3C[C@H]3CCOc3ccc(CC(=O)N4CCC4)cc3)CC2)CC1 [Example 57]
8.46	CC(C)OC(=O)N1CCC([C@H]2C[C@H]2CCOc2cc(F)c(C(=O)NC3CC3)c(F)c2)CC1 [Example 58]
8.27	Cc1cc(OCC[C@@H]2C[C@@H]2C2CCN(C(=O)OC3(C)CC3)CC2)ccc1CC(=O)N1CCC1 [Example 60, 1-methylcyclopropyl-4-((1R,2S)-2-{2-[4-(2-azetidin-1-yl-2-oxoethyl)-3-methylphenoxy]ethyl}cyclopropyl)piperidine-1-carboxylate]
8.70	O=C(Cc1ccc(OCC[C@@H]2C[C@@H]2C2CCN(C(=O)OCC3CC3)CC2)cc1F)N1CCC1 [Example 61, cyclopropylmethyl-4-((1R,2S)-2-{2-[4-(2-azetidin-1-yl-2-oxoethyl)-3-fluorophenoxy]ethyl}cyclopropyl)piperidine-1-carboxylate]
7.83	CC(C)(C)NC(=O)N1CCC([C@H]2C[C@H]2CCOc2ccc(-n3cnnn3)cc2)CC1 [Example 76, N-(tert-butyl)-4-((1R,2S)-2-(2-(4-(1H-tetrazol-1-yl)phenoxy)ethyl)cyclopropyl)piperidine-1-carboxamide]
7.93	O=C(CC1CCCCC1)N1CCC([C@H]2C[C@H]2CCOc2ccc(-n3cnnn3)cc2)CC1 [Example 77, 1-(cyclohexylacetyl)-4-((1R,2S)-2-{2-[4-(1H-tetrazol-1-yl)phenoxy]ethyl}cyclopropyl)piperidine]
7.93	CS(=O)(=O)c1ccc(OCC[C@@H]2C[C@@H]2C2CCN(C(=O)CC3CCCCC3)CC2)nc1 [Example 85, 2-(2-{(1S,2R)-2-[1-(cyclohexylacetyl)piperidin-4-yl]cyclopropyl}ethoxy)-5-(methylsulfonyl)pyridine]

Structure (SMILES)	pEC50
CC1(OC(=O)N2CCC([C@H]3C[C@H]3CCOc3ccc(CC(=O)N4CCC4)c(F)c3)CC2)CC1 [Example 59, 1-methylcyclopropyl 4-[(1R,2S)-2-(2-{4-[2-(azetidin-1-yl)-2-oxoethyl]-3-fluorophenoxy}ethyl)cyclopropyl]piperidine-1-carboxylate]	8.48

Same assay, conditions: table column; cAMP stimulation, human GPR119; read-out: GPR119 Human EC50

pEC50	Structure (SMILES)
9.70	CC(C)(C)OC(=O)N1CCC([C@H]2C[C@H]2CCOc2cc(F)c(C(=O)C3CC3)c(F)c2)CC1 [Example 52]
7.74	O=C(c1c(F)cc(OCC[C@@H]2C[C@@H]2C2CCN(C(=O)OCc3ccccc3)CC2)cc1F)C1CC1 [Example 53]
9.15	CC1(OC(=O)N2CCC([C@H]3C[C@H]3CCOc3cc(F)c(C(=O)C4CC4)c(F)c3)CC2)CC1 [Example 54]
8.96	CCOC(=O)N1CCC([C@H]2C[C@H]2CCOc2cc(F)c(C(=O)C3CC3)c(F)c2)CC1 [Example 55]
8.07	O=C(CCC(F)(F)F)N1CCC([C@H]2C[C@H]2CCOc2ccc(-n3cnnn3)cc2)CC1 [Example 78]
8.11	CC(C)CC(=O)N1CCC([C@H]2C[C@H]2CCOc2ccc(-n3cnnn3)cc2)CC1 [Example 79]
8.40	CC(C)(CC(=O)N1CCC([C@H]2C[C@H]2CCOc2ccc(-n3cnnn3)cc2)CC1)C1CC1 [Example 80]
7.82	O=C(CC1CCC1)N1CCC([C@H]2C[C@H]2CCOc2ccc(-n3cnnn3)cc2)CC1 [Example 81]
7.80	O=C(CC1CCCC1)N1CCC([C@H]2C[C@H]2CCOc2ccc(-n3cnnn3)cc2)CC1 [Example 82]
7.82	O=C(CC1(c2ccccc2)CCC1)N1CCC([C@H]2C[C@H]2CCOc2ccc(-n3cnnn3)cc2)CC1 [Example 83]
8.43	O=C(CC1CC2C=CC1C2)N1CCC([C@H]2C[C@H]2CCOc2ccc(-n3cnnn3)cc2)CC1 (some centres unmarked) [Example 84]
7.54	CC(C)CC(=O)N1CCC([C@H]2C[C@H]2CCOc2ccc(S(C)(=O)=O)cn2)CC1 [Example 86]
7.89	CS(=O)(=O)c1ccc(OCC[C@@H]2C[C@@H]2C2CCN(C(=O)CC3CCC3)CC2)nc1 [Example 87]
8.34	CS(=O)(=O)c1ccc(OCC[C@@H]2C[C@@H]2C2CCN(C(=O)CC3CCCC3)CC2)nc1 [Example 88]
7.80	CC(C)(C)CC(=O)N1CCC([C@H]2C[C@H]2CCOc2ccc(S(C)(=O)=O)cn2)CC1 [Example 89]
7.80	CS(=O)(=O)c1ccc(OCC[C@@H]2C[C@@H]2C2CCN(C(=O)CC3CC4C=CC3C4)CC2)nc1 (some centres unmarked) [Example 90]
7.44	CS(=O)(=O)c1ccc(OCC[C@@H]2C[C@@H]2C2CCN(C(=O)Cc3cccs3)CC2)nc1 [Example 91]
8.00	CS(=O)(=O)c1ccc(OCC[C@@H]2C[C@@H]2C2CCN(C(=O)CC3CCC3)CC2)cc1F [Example 92]
8.34	CS(=O)(=O)c1ccc(OCC[C@@H]2C[C@@H]2C2CCN(C(=O)CC3CCCC3)CC2)cc1F [Example 93]
7.72	CC(C)CC(=O)N1CCC([C@H]2C[C@H]2CCOc2ccc(S(C)(=O)=O)c(F)c2)CC1 [Example 94]
8.27	CC(C)(C)CC(=O)N1CCC([C@H]2C[C@H]2CCOc2ccc(S(C)(=O)=O)c(F)c2)CC1 [Example 95]
7.37	Cc1nc(C#N)cc(OCC[C@@H]2C[C@@H]2C2CCN(C(=O)CCC(F)(F)F)CC2)n1 [Example 96]
8.46	O=C(NC1CC1)c1c(F)cc(OCC[C@@H]2C[C@@H]2C2CCN(C(=O)CCC(F)(F)F)CC2)cc1F [Example 97]
